Reference: article PMC11462456 (Chemical Science, 2024)
pEC50: −log10 of the molar value.

What was measured:
[1] = test system: BRD2, BRD3, and BRD4 proteins; assay: Western blot BET protein degradation in HEK293 cells (screen, washout kinetics, proteasome rescue); format: cell-based, human; details: 4 h, 0.1 μM and 1 μM
Text: 4. Biological experiments
Primary antibodies used for western blotting included anti-human BRD2(1:2000, rabbit monoclonal, Abcam, ab139690), anti-human BRD3 (1:1000, rabbit monoclonal, Abcam, ab264420), anti-human BRD4 (E2A7X) (1:1000, rabbit monoclonal, Cell Signaling Technology, #13440), anti-human VHL (1:1000, rabbit polyclonal, Cell Signaling Technology, #68547), anti-human CRBN (D8H3S) (1:1000, rabbit polyclonal, Cell Signaling Technology, #71810), anti-human alpha Tubulin, clone B-5-1-2 (1:5000, mouse monoclonal, Merck Life Science, # 32-2500).Secondary antibodies used for western blot included: anti-mouse horseradish peroxidase-linked antibody (1:3000, sheep, GE Healthcare Life Sciences, #NA931V), and anti-rabbit horseradish peroxidase-linked antibody (1:8000, donkey, GE Healthcare Life Sciences, #NA934V). Reagent for degradation assay and compounds […]
dr. Serge Van Calenbergh, Ghent University).
4.2 Cell lines and culture […]
General method of Western blot: Lysates were sonicated and centrifuged at 4 °C at 20000 g for 15 min, and the supernatants were transferred to new tubes. Protein concentration of cell lysates was measured using the DC Protein Assay kit (BIO-RAD) following manufacturer's instructions. […]
Figure S1 Dual-ligand PROTACs induce target protein degradation in A549 cells. […] Subsequently, cells were lysed and BRD2, BRD3 and BRD4 protein levels were measured by Western blot. […]

[2] = target: T1, BRD4 (Homo sapiens, UniProt O60885); assay: Western blot degradation of BRD4 in HEK293 cells; format: cell-based; details: HEK293, lenalidomide 10 μM preincubated 2 h, PROTAC 100 nM, 4 h
T1 construct: BRD2, BRD3 and BRD4 protein levels were measured by western blot; endogenous in cells; host or cells: HEK293 (ATCC)
Experimental: HEK293, A549, SKOV-3, HCT116 cells (ATCC)were grown in DMEM (Gibco),and all cells were supplemented with 10% (v/v) fetal bovine serum (FBS) (Sigma), 100 mg/mL penicillin/streptomycin solution (Thermo Fisher Scientific) and maintained at 37 °C and 5% CO2 in a humidified atmosphere. All cells used were tested monthly using the Mycoalert
4.3 Degradation assays by Western blot
General method of Western blot: Lysates were sonicated and centrifuged at 4 °C at 20000 g for 15 min, and the supernatants were transferred to new tubes. Protein concentration of cell lysates was measured using the DC Protein Assay kit (BIO-RAD) following manufacturer's instructions. Cell lysates were mixed with reducing sample buffer (0.5 M Tris-HCl (pH 6.8),
at 95°C. Proteins were separated by SDS–PAGE (SDS polyacrylamide gel electrophoresis) with 25–40 µg of total protein per well, transferred to 0.2-μm-pore nitrocellulose membranes (BIO-RAD), then blocked in 5%(w/v) milk in PBS and 0.5% Tween-20, and incubated overnight at 4°C with primary antibodies described in section 4.1. Secondary antibodies were added for 1h at room temperature after 3 times washing with blocking buffer. After 6 times of washing
with PBS (Thermo Fisher Scientific) and 0.5% Tween-20, Blots were detected using the Clarity Western ECL Substrate (BIO-RAD) and visualized on iBright CL 750 (Thermo Fisher Scientific) and images were analyzed using iBright Firmware 1.7.0.
4.3.1 Evaluation of the degradation capacity of PROTACs […]

[3] = Body weight change in A549 xenograft mice; format: in vivo, mouse; details: i.p.
Experimental: 4.7 Therapeutic anti-tumor evaluation
Animal experiments were carried out in accordance with the regulatory guidelines of the Ethics Committee of the Ghent University Hospital. 30 female Swiss Nude Immunodeficient mice (Crl:NU(Ico)-Foxn1nu) of 5 weeks-6 weeks old (Charles River) were subcutaneously injected with […] A549 (1:1 serum free DMEM medium: Matrigel (Corning)). 10 days post inoculation ,mice were randomized into five groups (6 mice/group) with equal average tumor volume and treatment was started: (1) the control group: Vehicle(20% PEG400 and 5% […]
2J2V group (0.1 mg/kg), (5) the 2J2V group(0.5 mg/kg).Mice were treated on Day 0, Day 2, Day 4, Day 11, Day 18 by intraperitoneal injection. Tumor growth was monitored every 3 days by caliper, and the tumor volume was calculated as 1/2 × length × width2. Body weight was monitored every 3 days by weighing scale. […]
The reduced […]
proteins were alkylated with 40 mM iodoacetamide (IAA) in the dark for 30 minutes. Then samples were acidified with 1.2% aqueous phosphoric acid and mixed with 6× volumes of 90% methanol, 100 mM TEAB, pH 7.1 (S-Trap binding buffer). The samples were loaded onto the (1 picture or pasted object on this page, not shown here)

[4] = test system: A549 spheroids; assay: CellTiter-Glo 3D assay on spheroids; format: cell-based; details: Homo sapiens, 72 h, read-out: EC50, spheroid metabolic activity
Experimental: 4.5 Cell viability assay on 3D cell cultures
The single cell suspension containing 2.5 ×10^4 cells/ml of A549 or 2 ×10^4 cells/ml of HCT116 were seeded into the U-shaped, 384-well ULA plates (cat. no. MS-9384UZ, S-bio), each well containing 80 μl single cell suspension. The 384-well ULA plates were sealed with Breath-Easy semipermeable tape (cat. no. BEM-1, Diversified Biotech) to prevent evaporation. The spheroids were put into incubator and then cultured at 37 °C and 10% CO2. After 48h of spheroids formation, the spheroids were treated with various concentrations of compounds or 0.05% DMSO. After 72h treatment, each spheroid in the culture medium was pipetted into white micro-96-well plates (cat. no. 236108, ThermoFisher) and an equal volume of Cell Titer-Glo 3D (cat. no. G9683, Promega) reagent was added. Luminescence readouts were the same as described above for 2D culture.

SMILES: Cc1sc2c(c1C)C(c1ccc(Cl)cc1)=N[C@@H](CC(=O)NCCOCCOCCNC(=O)C[C@H](NC(=O)COCCOCCOCCOCCn1cc(CCC(=O)N[C@@H](CC(=O)NCCOCCOCCNc3cccc4c3C(=O)N(C3CCC(=O)NC3=O)C4=O)C(=O)NCCOCCOCCNc3cccc4c3C(=O)N(C3CCC(=O)NC3=O)C4=O)nn1)C(=O)NCCOCCOCCNC(=O)C[C@@H]1N=C(c3ccc(Cl)cc3)c3c(sc(C)c3C)-n3c(C)nnc31)c1nnc(C)n1-2 (stereo partly drawn) [2J2P]
- degradation efficiency versus single- and trivalent PROTACs [1]: superior degradation efficiency
- BRD4 degradation efficiency on addition of lenalidomide [2]: significantly reduced

SMILES: Cc1ncsc1-c1ccc(C(C)NC(=O)C2CC(O)CN2C(=O)C(NC(=O)COCCOCCNC(=O)CC(NC(=O)CCc2cn(CCOCCOCCOCCOCC(=O)NC(CC(=O)NCCOCCOCCNC(=O)CC3N=C(c4ccc(Cl)cc4)c4c(sc(C)c4C)-n4c(C)nnc43)C(=O)NCCOCCOCCNC(=O)CC3N=C(c4ccc(Cl)cc4)c4c(sc(C)c4C)-n4c(C)nnc43)nn2)C(=O)NCCOCCOCC(=O)NC(C(=O)N2CC(O)CC2C(=O)NC(C)c2ccc(-c3scnc3C)cc2)C(C)(C)C)C(C)(C)C)cc1 (stereo not drawn) [2J2V]
- degradation efficiency versus single- and trivalent PROTACs [1]: superior degradation efficiency
- body weight change ([3]; 0.1 mg kg−1): no detectable decrease in body weight
- body weight change ([3]; 0.5 mg kg−1): slight body weight decrease

SMILES: Cc1ncsc1-c1ccc(CNC(=O)C2CC(O)CN2C(=O)C(NC(=O)COCCOCCOCCNC(=O)CC2N=C(c3ccc(Cl)cc3)c3c(sc(C)c3C)-n3c(C)nnc32)C(C)(C)C)cc1 (stereo not drawn) [MZ1, reference compound]
- pEC50 [4]: 7.10
